{"source": "patent US8828977B2", "about": "“Method of treating a subject suffering from degenerative disc disease using a matrix metalloprotease inhibitor” (priority 2006, dated 2014)", "origin": "cited, not measured here", "key": {"[1]": {"conditions": "stability and solubility inversely related"}, "[2]": {"conditions": "rats"}, "[3]": {"tested_on": "panel of prostate cancer cell lines", "conditions": "MTT assays"}, "[4]": {"conditions": "18 KS patients, sampling lasted only 24 h"}, "[5]": {"conditions": "two dose-escalation studies in humans"}, "HUVEC": {"tested_on": "HUVEC", "conditions": "in vitro"}, "COX-2": {"molecular_target": "T1, COX-2 (Homo sapiens, UniProt P35354)", "T1 sequence (P35354 18-604)": "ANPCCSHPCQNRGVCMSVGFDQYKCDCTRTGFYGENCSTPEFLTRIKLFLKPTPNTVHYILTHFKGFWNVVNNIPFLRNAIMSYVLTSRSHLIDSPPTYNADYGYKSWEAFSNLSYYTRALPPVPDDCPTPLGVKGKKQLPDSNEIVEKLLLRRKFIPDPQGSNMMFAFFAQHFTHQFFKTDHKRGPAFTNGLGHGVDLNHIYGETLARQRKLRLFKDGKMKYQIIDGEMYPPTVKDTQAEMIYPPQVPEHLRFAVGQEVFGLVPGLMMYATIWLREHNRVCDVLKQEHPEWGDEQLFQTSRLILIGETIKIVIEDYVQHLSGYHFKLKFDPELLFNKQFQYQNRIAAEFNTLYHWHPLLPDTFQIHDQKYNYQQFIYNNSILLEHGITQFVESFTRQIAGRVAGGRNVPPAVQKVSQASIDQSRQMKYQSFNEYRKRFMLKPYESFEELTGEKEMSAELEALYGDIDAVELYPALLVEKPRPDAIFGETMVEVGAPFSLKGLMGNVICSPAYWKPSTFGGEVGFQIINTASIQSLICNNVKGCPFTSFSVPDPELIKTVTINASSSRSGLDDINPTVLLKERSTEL", "conditions": "in vitro"}, "[6]": {"conditions": "142 animals, daily gavage 40 mg/kg for 7 days"}, "[7]": {"tested_on": "AIDS-associated Kaposi's sarcoma"}, "[8]": {"tested_on": "human umbilical vein endothelial cells (HUVECs)", "conditions": "HUVECs stimulated with angiogenic factors in vitro"}, "MMP-2 [9]": {"molecular_target": "T2, MMP-2 (Homo sapiens, UniProt P08253)", "T2 sequence (P08253 110-660)": "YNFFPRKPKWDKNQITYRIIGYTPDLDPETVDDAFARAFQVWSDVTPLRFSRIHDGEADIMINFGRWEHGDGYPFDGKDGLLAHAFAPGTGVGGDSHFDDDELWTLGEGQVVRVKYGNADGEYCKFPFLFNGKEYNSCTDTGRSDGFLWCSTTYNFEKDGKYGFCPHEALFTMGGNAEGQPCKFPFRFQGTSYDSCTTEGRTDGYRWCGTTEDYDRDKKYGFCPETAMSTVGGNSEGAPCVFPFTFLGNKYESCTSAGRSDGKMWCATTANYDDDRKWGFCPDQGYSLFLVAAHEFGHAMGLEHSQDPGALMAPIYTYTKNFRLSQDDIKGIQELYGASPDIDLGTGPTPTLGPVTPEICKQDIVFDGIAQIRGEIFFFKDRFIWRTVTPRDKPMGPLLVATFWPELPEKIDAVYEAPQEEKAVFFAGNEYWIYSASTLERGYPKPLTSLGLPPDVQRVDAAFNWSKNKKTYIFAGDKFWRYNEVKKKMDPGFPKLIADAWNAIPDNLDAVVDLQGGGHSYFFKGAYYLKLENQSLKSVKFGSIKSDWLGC", "conditions": "of the seven CMTs evaluated, zymography"}, "[10]": {"tested_on": "lung foci (experimental metastasis)", "conditions": "SCID mice"}, "[11]": {"tested_on": "metastatic melanoma cells", "conditions": "metastatic melanoma cells in vitro"}, "MMP-2 [12]": {"molecular_target": "T2, MMP-2"}, "[13]": {"conditions": "monkeys, any dosing schedule, after three to five doses"}, "[14]": {"conditions": "rats, single oral dose of suspension"}, "[15]": {"assay": "not given", "remark": "listed apart in the source"}, "[16]": {"tested_on": "prostate cancer cell lines"}, "MMP-9": {"molecular_target": "MMP-9 (Homo sapiens, UniProt P14780)", "sequence (P14780 94-707)": "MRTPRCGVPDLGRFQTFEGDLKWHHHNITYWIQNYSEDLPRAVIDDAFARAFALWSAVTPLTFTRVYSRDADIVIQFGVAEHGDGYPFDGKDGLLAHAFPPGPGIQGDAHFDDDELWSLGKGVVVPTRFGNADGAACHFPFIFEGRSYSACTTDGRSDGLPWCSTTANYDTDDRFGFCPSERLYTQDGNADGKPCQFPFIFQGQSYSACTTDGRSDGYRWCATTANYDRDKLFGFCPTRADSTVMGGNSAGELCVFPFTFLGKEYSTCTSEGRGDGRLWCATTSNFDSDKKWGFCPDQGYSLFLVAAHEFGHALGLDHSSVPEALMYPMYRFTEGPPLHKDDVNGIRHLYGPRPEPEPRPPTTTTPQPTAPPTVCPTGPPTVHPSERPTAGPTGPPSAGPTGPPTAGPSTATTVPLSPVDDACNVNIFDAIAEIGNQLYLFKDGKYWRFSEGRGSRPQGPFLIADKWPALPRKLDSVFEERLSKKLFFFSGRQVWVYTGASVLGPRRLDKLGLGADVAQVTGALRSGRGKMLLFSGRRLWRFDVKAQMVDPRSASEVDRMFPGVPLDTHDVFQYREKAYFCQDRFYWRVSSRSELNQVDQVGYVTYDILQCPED", "conditions": "of the seven CMTs evaluated, zymography"}, "[17]": {"assay": "not given", "remark": "listed apart in the source"}, "[18]": {"tested_on": "Dunning MatLyLu rat prostate tumor"}, "[19]": {"tested_on": "rheumatoid arthritis synoviocytes", "conditions": "activity comparable to doxycycline"}, "[20]": {"tested_on": "refractory metastatic cancers"}, "human melanoma cell line": {"tested_on": "human melanoma cell line", "conditions": "activity comparable to doxycycline"}, "immune responses": {"tested_on": "immune responses", "conditions": "in vivo"}, "[21]": {"conditions": "mice"}, "[22]": {"conditions": "non-competitive component, read-out: Ki′ (the dissociation equilibrium constant) value for MMP-2"}, "[23]": {"conditions": "35 patients with refractory metastatic cancers"}}, "note": "Like-named read-outs stand apart in the source and are kept apart here."}
{"smiles": "NC(=O)C1=C(O)C[C@@H]2C[C@@H]3Cc4cccc(O)c4C(=O)C3=C(O)[C@]2(O)C1=O", "note": "[CMT-3]", "values": [{"measurement": "pH of maximum stability", "setting": "[1]", "result": "< 4"}, {"measurement": "terminal half-life", "setting": "[2]", "result": 7, "unit": "h"}, {"measurement": "cytotoxicity", "setting": "[3]", "result": "significantly cytotoxic"}, {"measurement": "median half-life", "setting": "[4]", "result": 39.3, "unit": "h"}, {"measurement": "dose up to which plasma levels increased (plateau of steady-state concentration above)", "setting": "[5]", "result": "up to 50 mg/m^2/day"}, {"measurement": "HUVEC proliferation", "setting": "HUVEC", "result": "inhibited HUVEC proliferation"}, {"measurement": "COX-2 enzyme activity", "setting": "COX-2", "result": "inhibit COX-2 enzyme activity"}, {"measurement": "adverse effects or weight loss", "setting": "[6]", "result": "no adverse effects or weight loss"}, {"measurement": "dose with histopathological lesions in the small intestine and thymus", "setting": "rats", "result": 100, "unit": "mg/kg/day"}, {"measurement": "plasma level at which dose-limiting gastrointestinal toxicities occurred", "setting": "rats (stated for both species)", "result": "≥ 15000", "unit": "ng/mL"}, {"measurement": "median duration of response", "setting": "[7]; 18 KS patients", "result": "> 25", "unit": "weeks"}, {"measurement": "median time to response", "setting": "[7]; 18 KS patients", "result": 4, "unit": "weeks"}, {"measurement": "overall response rate", "setting": "[7]; 18 KS patients, one complete and seven partial responses", "result": 44, "unit": "%"}, {"measurement": "doses not tolerated", "setting": "[7]; KS patients", "result": "> 50", "unit": "mg/m^2/day"}, {"measurement": "evaluable patients with decrease in plasma concentration of MMP-2", "setting": "[7]; KS patients", "result": 61, "unit": "%"}, {"measurement": "evaluable patients with decrease in plasma concentration of MMP-9", "setting": "[7]; KS patients", "result": 37, "unit": "%"}, {"measurement": "doses reasonably well tolerated", "setting": "[7]; KS patients, dose levels 25, 50 and 70", "result": "up to 70 mg/m^2/day"}, {"measurement": "increase of MMP-2 level from baseline", "setting": "[7]; non-responding patients", "result": 300, "unit": "ng/mL"}, {"measurement": "decrease of MMP-2 level from baseline", "setting": "[7]; responding patients", "result": 56, "unit": "ng/mL"}, {"measurement": "microtubule formation", "setting": "[8]", "result": "inhibited microtubule formation"}, {"measurement": "rank as MMP-2 inhibitor", "setting": "MMP-2 [9]", "result": "most effective MMP-2 inhibitor"}, {"measurement": "metastatic invasion compared with control animals", "setting": "[10]; higher dose 100 mg/kg", "result": "did not significantly impact"}, {"measurement": "number of lung foci", "setting": "[10]; orally at 40 mg/kg", "result": "significantly reduced"}, {"measurement": "vascular mimicry", "setting": "[11]", "result": "inhibited this mechanism"}, {"measurement": "Ki", "setting": "MMP-2 [12]; competitive component, read-out: dissociation binding constant (Ki) value for MMP-2", "result": 74, "unit": "µM"}, {"measurement": "Ki", "setting": "MMP-2 [12]; [22]", "result": 148, "unit": "µM"}, {"measurement": "dose resulting in mortalities", "setting": "[13]", "result": 100, "unit": "mg/kg/day"}, {"measurement": "half-life", "setting": "[14]", "result": "approximately 6 h"}, {"measurement": "water solubility", "setting": "[15]", "result": "~10", "unit": "µg/mL"}, {"measurement": "apoptosis, necrosis and cell-cycle arrest", "setting": "[16]; added to prostate cell lines in vitro", "result": "increased apoptosis and necrosis as well as cell-cycle arrest"}, {"measurement": "time of exposure to apoptosis induction", "setting": "[16]; prostate cancer cell lines", "result": "≤ 4", "unit": "h"}, {"measurement": "induction of apoptosis", "setting": "[16]; prostate cancer cell lines, concentration-dependent", "result": "induced apoptosis"}, {"measurement": "rank as MMP-9 inhibitor", "setting": "MMP-9", "result": "second most potent MMP-9 inhibitor"}, {"measurement": "total apparent clearance", "setting": "[17]; [23]", "result": "0.163 ± 0.0967", "unit": "mL/min/kg"}, {"measurement": "median half-life", "setting": "[17]; 35 patients, one-compartment model", "result": "approximately 56.1 h"}, {"measurement": "median apparent total clearance", "setting": "[17]; humans", "result": 0.17, "unit": "mL/min/kg"}, {"measurement": "median pseudo-steady-state apparent volume of distribution", "setting": "[17]; humans", "result": 0.64, "unit": "L/kg"}, {"measurement": "iNOS mRNA degradation", "setting": "iNOS mRNA", "result": "increases iNOS mRNA degradation"}, {"measurement": "instances of lung metastases", "setting": "[18]; daily gavage at 40 mg/kg for 7 days, controls 59.5±13.9", "result": "28.9±15.4", "unit": "tumors/animal"}, {"measurement": "decrease of primary tumor incidence", "setting": "[18]; pre-dosing the rats for 7 days", "result": "55±9", "unit": "%"}, {"measurement": "delay of tumor growth", "setting": "[18]; pre-dosing the rats for 7 days", "result": "27±9.3", "unit": "%"}, {"measurement": "reduction in metastases", "setting": "[18]; pre-dosing the rats for 7 days", "result": "58±8", "unit": "%"}, {"measurement": "inhibiting the in vitro invasive ability", "setting": "[19]", "result": "most active"}, {"measurement": "patients experiencing some phototoxicity", "setting": "[20]; 50 mg/m^2/day, sun-block mandatory", "result": "over 50%"}, {"measurement": "cases of drug-induced lupus", "setting": "[20]; [23]", "result": "three cases"}, {"measurement": "cases of reversible sideroblastic anemia", "setting": "[20]; [23]", "result": "three cases"}, {"measurement": "maximum tolerated dose (MTD)", "setting": "[20]; [23]", "result": 98, "unit": "mg/m^2/day"}, {"measurement": "change between pre- and post-treatment levels of MMP-2 or MMP-9", "setting": "[20]; 35 patients, overall", "result": "no significant change"}, {"measurement": "sunburn (photosensitivity), dose-limiting", "setting": "[20]; highest dose 98 mg/m^2/day, despite prophylactic measures", "result": "all 18 patients developed sunburn"}, {"measurement": "musculoskeletal side effects", "setting": "[20]; human trials", "result": "no reports"}, {"measurement": "disease-stabilization", "setting": "[20]; three out of seven patients with tumors of non-epithelial origin", "result": 43, "unit": "%"}, {"measurement": "inhibiting the in vitro invasive ability", "setting": "human melanoma cell line", "result": "most active"}]}
{"smiles": "C[C@H]1c2cccc(O)c2C(=O)C2=C(O)[C@]3(O)C(=O)C(C(N)=O)=C(O)[C@@H](N(C)C)[C@@H]3[C@@H](O)[C@@H]21", "note": "[doxycycline]", "values": [{"measurement": "cytotoxicity", "setting": "[3]", "result": "significantly cytotoxic"}, {"measurement": "Ki", "setting": "MMP-2 [12]; [22]", "result": 144, "unit": "µM"}, {"measurement": "effect on immune responses", "setting": "immune responses", "result": "moderately inhibit immune responses"}, {"measurement": "hepatotoxic effect", "setting": "[21]", "result": "hepatotoxic effect"}]}
